According to US12162888B2, “Carboxamides as ubiquitin-specific protease inhibitors” (Valo Early Discovery, Inc., priority 2018, dated 2024):

What follows are molecules tested against T1, USP25 (USP25-His6, Boston Biochem E-546) (Homo sapiens, UniProt Q9UHP3) (assay: Ubiquitin-Rhodamine 110 Assay for USP25 Activity, Example A-3). Conditions: Ubiquitin-Rhodamine 110 assay, Example A-3; IC50 ranges; read-out: USP25 A-3 IC50.
T1 construct: His6 (C); purchased Boston Biochem E-546
T1 sequence (Q9UHP3 1-1055): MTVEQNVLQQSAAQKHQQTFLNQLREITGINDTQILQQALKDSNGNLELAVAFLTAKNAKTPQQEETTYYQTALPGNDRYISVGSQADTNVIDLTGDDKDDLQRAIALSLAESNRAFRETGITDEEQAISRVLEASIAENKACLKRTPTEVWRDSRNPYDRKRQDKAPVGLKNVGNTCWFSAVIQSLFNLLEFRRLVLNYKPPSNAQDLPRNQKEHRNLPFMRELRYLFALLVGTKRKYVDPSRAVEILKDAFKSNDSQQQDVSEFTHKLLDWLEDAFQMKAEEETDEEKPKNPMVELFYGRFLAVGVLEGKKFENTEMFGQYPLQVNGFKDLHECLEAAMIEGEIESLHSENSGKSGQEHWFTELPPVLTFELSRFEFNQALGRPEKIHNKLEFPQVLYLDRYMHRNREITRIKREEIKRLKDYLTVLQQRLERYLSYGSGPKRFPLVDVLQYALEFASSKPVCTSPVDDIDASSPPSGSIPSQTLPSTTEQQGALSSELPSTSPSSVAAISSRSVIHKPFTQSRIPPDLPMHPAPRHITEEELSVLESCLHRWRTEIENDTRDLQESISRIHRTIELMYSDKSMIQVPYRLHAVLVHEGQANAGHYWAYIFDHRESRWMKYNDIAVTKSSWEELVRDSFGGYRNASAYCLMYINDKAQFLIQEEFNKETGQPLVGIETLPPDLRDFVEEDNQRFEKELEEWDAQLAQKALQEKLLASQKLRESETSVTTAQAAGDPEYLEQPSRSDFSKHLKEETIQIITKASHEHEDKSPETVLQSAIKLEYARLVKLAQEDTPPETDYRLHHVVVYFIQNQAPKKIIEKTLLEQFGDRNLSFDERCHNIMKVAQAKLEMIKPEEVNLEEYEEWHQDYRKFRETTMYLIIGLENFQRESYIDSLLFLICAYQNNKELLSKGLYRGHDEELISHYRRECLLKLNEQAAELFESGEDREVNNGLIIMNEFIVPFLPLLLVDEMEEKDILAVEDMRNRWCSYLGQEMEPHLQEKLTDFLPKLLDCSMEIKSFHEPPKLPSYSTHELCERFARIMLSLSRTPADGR
Format: biochemical
How it was run: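 USP25-His6 ([…] final as stated) preincubated 30 min with compound (10-point, 25 μM to 1.3 nM), then Ub-Rh110 at 25 nM (<<Km) added in pH 8.0 Tris buffer with BME, BGG and Triton X-100. Reaction stopped after 45 min at room temperature with 10 mM citric acid; fluorescence read at 485/535 nm.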

Q: For N#Cc1c(N2CC3CCC(C2)N3)cc(F)c2c1OC[C@H](NC(=O)c1cnc3c(c1)[C@@H]1CC1CN3)C2 (stereo partly drawn) [Example 228, (6aS,7aR)-N-[(3R)-8-cyano-7-(3,8-diazabicyclo[3.2.1]octan-3-yl}-5-fluoro-3,4-dihydro-2H-1-benzopyran-3-yl]-5H,6H,6aH,7H,7aH-cyclopropa[c]1,8-naphthyridine-2-carboxamide], which IC50 is on record?
A: 200 to 2000 nM

Same assay, conditions: Ubiquitin-Rhodamine 110 assay, Example A-3; read-out: USP25 A-3 IC50 range

Q: COC[C@@]1(C)CN(c2ccc3c(n2)CC[C@H](NC(=O)c2sc4nc(C)ccc4c2N)C3)C[C@H]1N [Example 343, 3-amino-N-[(6S)-2-[(3S,4S)-4-amino-3-(methoxymethyl)-3-methylpyrrolidin-1-yl]-5,6,7,8-tetrahydroquinolin-6-yl]-6-methylthieno[2,3-b]pyridine-2-carboxamide] was tested. Which IC50 did it give?
A: 200 to 2000 nM

Q: Cc1ccc2c(N)c(C(=O)N[C@H]3CCc4nc(N5C[C@H](N)[C@@]6(CCOC6)C5)ccc4C3)sc2n1 [Example 437, 3-amino-N-[(6S)-2-[(5R,9R)-9-amino-2-oxa-7-azaspiro[4.4]nonan-7-yl]-5,6,7,8-tetrahydroquinolin-6-yl]-6-methylthieno[2,3-b]pyridine-2-carboxamide] was tested. Which IC50 did it give?
A: > 2000 nM

Q: For Cc1ccc2c(N)c(C(=O)N[C@H]3CCc4nc(N5C[C@@H](N)[C@]6(CCOC6)C5)ccc4C3)sc2n1 [Example 438, 3-amino-N-[(6S)-2-[(5S, 9S)-9-amino-2-oxa-7-azaspiro[4.4]nonan-7-yl]-5,6,7,8-tetrahydroquinolin-6-yl]-6-methylthieno[2,3-b]pyridine-2-carboxamide], which IC50 is on record?
A: > 2000 nM

Q: For CN[C@H]1CN(c2ccc3c(n2)CC[C@H](NC(=O)c2sc4nc(C)ccc4c2N)C3)C[C@H]1CF [Example 441, 3-amino-N-[(6S)-2-[(3R,4R)-3-(fluoromethyl)-4-(methylamino)pyrrolidin-1-yl]-5,6,7,8-tetrahydroquinolin-6-yl]-6-methylthieno[2,3-b]pyridine-2-carboxamide], which IC50 is on record?
A: > 2000 nM

Q: With CN[C@@H]1CN(c2ccc3c(n2)CC[C@H](NC(=O)c2sc4nc(C)ccc4c2N)C3)C[C@@H]1CF [Example 442, 3-amino-N-[(6S)-2-[(3S,4S)-3-(fluoromethyl)-4-(methylamino)pyrrolidin-1-yl]-5,6,7,8-tetrahydroquinolin-6-yl]-6-methylthieno[2,3-b]pyridine-2-carboxamide] as the molecule, how does the IC50 read?
A: > 2000 nM

Q: How did the IC50 turn out when Cc1ccc2c(N)c(C(=O)N[C@@H]3CCc4nc(N5C[C@@H](CF)[C@@H](N)C5)ncc4C3)sc2n1 [Example 445, 3-amino-N-[(6R)-2-[(3R,4R)-3-amino-4-(fluoromethyl)pyrrolidin-1-yl]-5,6,7,8-tetrahydroquinazolin-6-yl]-6-methylthieno[2,3-b]pyridine-2-carboxamide] was run?
A: > 2000 nM

Q: Cc1ccc2c(N)c(C(=O)N[C@@H]3CCc4nc(N5C[C@H](CF)[C@H](N)C5)ncc4C3)sc2n1 [Example 446, 3-amino-N-[(6R)-2-[(3S,4S)-3-amino-4-(fluoromethyl)pyrrolidin-1-yl]-5,6,7,8-tetrahydroquinazolin-6-yl]-6-methylthieno[2,3-b]pyridine-2-carboxamide] was tested. Which IC50 did it give?
A: > 2000 nM

Same assay, conditions: biochemical IC50 range, Ubiquitin-Rhodamine 110 assay, Example A-3; read-out: USP25 A-3

Q: How did the IC50 turn out when Cc1ccc2c(N)c(C(=O)N[C@H]3COc4cc(N5C[C@H](N)[C@]6(CCOC6)C5)ccc4C3)sc2n1 [Example 656, 3-amino-N-[(3R)-7-[(5S,9R)-9-amino-2-oxa-7-azaspiro[4.4]nonan-7-yl]-3,4-dihydro-2H-1-benzopyran-3-yl]-6-methylthieno[2,3-b]pyridine-2-carboxamide] was run?
A: 200 to 2000 nM

Q: Which IC50 does the source give for Cc1ccc2c(N)c(C(=O)N[C@H]3CCc4cc(N5C[C@H](CF)[C@H](N)C5)ccc4C3)sc2n1 [Example 657, 3-amino-N-[(2S)-6-[(3S,4S)-3-amino-4-(fluoromethyl)pyrrolidin-1-yl]-1,2,3,4-tetrahydronaphthalen-2-yl]-6-methylthieno[2,3-b]pyridine-2-carboxamide] here?
A: 200 to 2000 nM

Q: Cc1ccc2c(N)c(C(=O)N[C@H]3COc4cc(N5C[C@H](N)[C@](C)(CF)C5)ccc4C3)sc2n1 [Example 658, 3-amino-N-[(3R)-7-[(3R,4R)-4-amino-3-(fluoromethyl)-3-methylpyrrolidin-1-yl]-3,4-dihydro-2H-1-benzopyran-3-yl]-6-methylthieno[2,3-b]pyridine-2-carboxamide] was tested. Which IC50 did it give?
A: 50 to 200 nM

Q: For Cc1ccc2c(N)c(C(=O)N[C@H]3COc4cc(N5C[C@H](N)[C@@](C)(CF)C5)ccc4C3)sc2n1 [Example 659, 3-amino-N-[(3R)-7-[(3S,4R)-4-amino-3-(fluoromethyl)-3-methylpyrrolidin-1-yl]-3,4-dihydro-2H-1-benzopyran-3-yl]-6-methylthieno[2,3-b]pyridine-2-carboxamide], which IC50 is on record?
A: 50 to 200 nM

Q: Which IC50 does the source give for Cc1ccc2c(N)c(C(=O)N[C@H]3COc4cc(N5C[C@@H](N)[C@@](C)(CF)C5)ccc4C3)sc2n1 [Example 660, 3-amino-N-[(3R)-7-[(3S,4S)-4-amino-3-(fluoromethyl)-3-methylpyrrolidin-1-yl]-3,4-dihydro-2H-1-benzopyran-3-yl]-6-methylthieno[2,3-b]pyridine-2-carboxamide] here?
A: 1 to 50 nM

Q: With Cc1ccc2c(N)c(C(=O)N[C@H]3COc4cc(N5C[C@@H](N)[C@](C)(CF)C5)ccc4C3)sc2n1 [Example 661, 3-amino-N-[(3R)-7-[(3R,4S)-4-amino-3-(fluoromethyl)-3-methylpyrrolidin-1-yl]-3,4-dihydro-2H-1-benzopyran-3-yl]-6-methylthieno[2,3-b]pyridine-2-carboxamide] as the molecule, how does the IC50 read?
A: 50 to 200 nM

Q: With CN[C@H]1CN(c2ccc3c(c2)OC[C@H](NC(=O)c2sc4nc(C)ccc4c2N)C3)C[C@@H]1CF [Example 662, 3-amino-N-[(3R)-7-[(3S,4R)-3-(fluoromethyl)-4-(methylamino)pyrrolidin-1-yl]-3,4-dihydro-2H-1-benzopyran-3-yl]-6-methylthieno[2,3-b]pyridine-2-carboxamide] as the molecule, how does the IC50 read?
A: 1 to 50 nM

Q: How did the IC50 turn out when CN[C@@H]1CN(c2ccc3c(c2)OC[C@H](NC(=O)c2sc4nc(C)ccc4c2N)C3)C[C@H]1CF [Example 663, 3-amino-N-[(3R)-7-[(3R,4S)-3-(fluoromethyl)-4-(methylamino)pyrrolidin-1-yl]-3,4-dihydro-2H-1-benzopyran-3-yl]-6-methylthieno[2,3-b]pyridine-2-carboxamide] was run?
A: 50 to 200 nM

Q: With Cc1ccc2c(N)c(C(=O)N[C@H]3COc4cc(N5C[C@@H]6CCNC[C@@H]65)cc(F)c4C3)sc2n1 [Example 665, 3-amino-N-[(3R)-7-[(1R,6S)-3,8-diazabicyclo[4.2.0]octan-8-yl]-5-fluoro-3,4-dihydro-2H-1-benzopyran-3-yl]-6-methylthieno[2,3-b]pyridine-2-carboxamide] as the molecule, how does the IC50 read?
A: 50 to 200 nM

Q: For O=C(N[C@H]1COc2cc(N3CCNCC3)ccc2C1)c1ccc(NCc2ccc(Cl)cc2Cl)nc1 [Example 697, 6-{[(2,4-dichlorophenyl)methyl]amino}-N-[(3R)-7-(piperazin-1-yl)-3,4-dihydro-2H-1-benzopyran-3-yl]pyridine-3-carboxamide], which IC50 is on record?
A: 1 to 50 nM

Q: Which IC50 does the source give for O=C(N[C@H]1COc2cc(N3CCNCC3)ccc2C1)c1ccc(NCc2cccc3cn[nH]c23)nc1 [Example 698, 6-{[(1H-indazol-7-yl)methyl]amino}-N-[(3R)-7-(piperazin-1-yl)-3,4-dihydro-2H-1-benzopyran-3-yl]pyridine-3-carboxamide] here?
A: 200 to 2000 nM

Q: How did the IC50 turn out when O=C(N[C@H]1COc2cc(N3CCNCC3)ccc2C1)c1ccc(NCc2cccc(Cl)c2Cl)nc1 [Example 699, 6-{[(2,3-dichlorophenyl)methyl]amino}-N-[(3R)-7-(piperazin-1-yl)-3,4-dihydro-2H-1-benzopyran-3-yl]pyridine-3-carboxamide] was run?
A: 1 to 50 nM
